Assay results: patent US6162809A, “Pyridylthio compounds for controlling helicobacter bacteria” (Byk Gulden Lomberg Chemische Fabrik GmbH, priority 1994, dated 2000)
Structures can show the parent of a compound that is named as a salt.

Tested on: Helicobacter pylori
Experiment: activity against Helicobacter pylori (Columbia agar, growth period of 4 days)
Assay type: cell-based
Settings: Columbia agar (Oxoid), approximate values

| Compound | Approx. MIC 50 |
| --- | --- |
| 4-[3-(4-Phenyl-1-piperazinyl)propylthio]-2-[(4-pyridinylthio)methyl]pyridine [Compound 16] | ≤ 0,5 μg/ml |

Same assay, conditions: Helicobacter pylori, 96 h, Columbia agar (Oxoid), approximate values, read-out: Approx. MIC 50

| MIC50 [µg/mL] | Compound |
| --- | --- |
| ≤ 0.5 | Cc1ncsc1CCSc1ccnc(CSc2ccccn2)c1C [Compound 3, 3-Methyl-4-[2-(4-methyl-5-thiazolyl)ethylthio]2-[(2-pyridinylthio)methyl]pyridine] |
| ≤ 0.5 | Cc1c(SCCCSc2ccncc2)ccnc1CSc1ccccn1 [Compound 6] |
| ≤ 0.5 | Cc1c(SCc2ccco2)ccnc1CSc1ccncc1 [Compound 11, 4-(2-Furylmethylthio)-3-methyl-2-[(4-pyridinylthio)methyl]pyridine] |
| ≤ 0.5 | Cc1c(SCCCSc2ccncc2)ccnc1CSc1ccncc1 [Compound 14, 3-Methyl-2-[(4-pyridinylthio)methyl]-4-[5-(4-pyridinyl)-1,5-dithiapentyl]pyridine] |
| ≤ 0.5 | Cc1c(SCCCSC(=S)N(C)C)ccnc1CSc1ccncc1 [Compound 15, 4-[(3-Dimethyldithiocarbamoyl)propylthio]-3-methyl-2-[(4-pyridinylthio)methyl]pyridine] |
| ≤ 0.5 | Cc1c(SCCCSCCn2c([N+](=O)[O-])cnc2C)ccnc1CSc1ccncc1 [Compound 29, 4-[[7-(2-Methyl-5-nitroimidazol-1-yl)-1,5-dithiahept-1-yl]-3-methyl]-2-[(4-pyridinylthio)methyl]-pyridine dihydrochloride] |
| ≤ 0.5 | Cc1c(SCCCn2c([N+](=O)[O-])cnc2C)ccnc1CSc1ncccn1 [Compound 32, 3-Methyl-4-[3-(2-methyl-5-nitroimidazol-1-yl)propylthio]-2-[(2-pyrimidinylthio)methyl]pyridine] |
